Laboratory results published in patent US7375180B2, “Methods and compositions related to IRM compounds and Toll-like receptor 8” (3M Innovative Properties Company, priority 2003, dated 2008).

Columns and labels:
TLR8 [1] = target: T1, TLR8 (Homo sapiens, UniProt Q9NR97); test: NF-κB-luciferase reporter activation in HEK293-TLR8 cells, 10 μM IRM (Example 1); assay type: cell-based; parameters: expressed in transfected cells; host or cells: HEK293 (ATCC CRL-1573), pIRES vector, G-418 selected, co-transfected with NFkB-luc reporter
T1 sequence (Q9NR97 27-1041): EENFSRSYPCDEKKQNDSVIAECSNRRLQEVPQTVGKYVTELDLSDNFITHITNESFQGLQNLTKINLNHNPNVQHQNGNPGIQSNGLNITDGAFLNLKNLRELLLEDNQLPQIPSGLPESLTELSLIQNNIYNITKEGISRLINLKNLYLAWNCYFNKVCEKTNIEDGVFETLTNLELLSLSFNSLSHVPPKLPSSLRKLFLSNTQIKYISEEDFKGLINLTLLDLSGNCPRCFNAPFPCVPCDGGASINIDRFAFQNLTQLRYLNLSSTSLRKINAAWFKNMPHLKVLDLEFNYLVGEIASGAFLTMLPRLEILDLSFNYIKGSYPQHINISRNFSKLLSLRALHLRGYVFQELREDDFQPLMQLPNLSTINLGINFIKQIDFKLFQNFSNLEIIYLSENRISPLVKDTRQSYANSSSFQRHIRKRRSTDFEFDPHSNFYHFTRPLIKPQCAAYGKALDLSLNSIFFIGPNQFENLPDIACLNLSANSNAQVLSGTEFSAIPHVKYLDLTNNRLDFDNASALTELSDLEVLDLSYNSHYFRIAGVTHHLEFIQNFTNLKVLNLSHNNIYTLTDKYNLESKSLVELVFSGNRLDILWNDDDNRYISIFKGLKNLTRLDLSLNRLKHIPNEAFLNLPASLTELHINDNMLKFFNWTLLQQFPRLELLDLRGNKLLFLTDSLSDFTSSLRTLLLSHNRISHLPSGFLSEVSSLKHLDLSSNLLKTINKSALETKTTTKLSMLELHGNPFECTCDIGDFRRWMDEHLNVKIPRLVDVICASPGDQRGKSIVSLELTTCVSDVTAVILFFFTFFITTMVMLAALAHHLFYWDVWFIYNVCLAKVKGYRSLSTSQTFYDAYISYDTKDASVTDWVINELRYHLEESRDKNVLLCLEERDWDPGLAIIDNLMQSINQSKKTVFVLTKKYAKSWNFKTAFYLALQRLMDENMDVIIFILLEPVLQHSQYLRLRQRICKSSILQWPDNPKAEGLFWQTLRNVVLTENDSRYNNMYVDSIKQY
From the text: (§1) HEK293 cells, derived from human embryonic kidney cells, may be co-transfected with (1) either a control vector (HEK293-vector) or a vector construct including human TLR8 (HEK293-TLR8), and (2) an NF-κB-luciferase reporter. The NF-κB-luciferase reporter provides a luciferase signal upon NF-κB activation in a transfected cell. Thus, TLR8-mediated NF-κB activity can be detected by exposing the cells transfected with vector and the cells transfected with the TLR8 construct to a test compound, then comparing the luciferase signal of the vector-transfected cells with the luciferase signal of the cells transfected with the TLR8 construct.
(§2) HEK293 cells were cultured in 90% Minimum Essential Medium (MEM) with 2 mM L-glutamine and Earle's Balanced Salt Solution (Invitrogen Corp., Rockville, Md.) adjusted to contain 1.5 g/L sodium bicarbonate, 0.1 mM non-essential amino acids, and 1.0 mM sodium pyruvate; 10% heat-inactivated fetal calf serum. The cells were incubated at 37° C., 8% CO2.
(§3) The cells were co-transfected with (1) pIRES (BD Biosciences Clontech, Palo Alto, Calif.) either (a) unmodified (HEK293-vector) or (b) containing human TLR8 (HEK293-TLR8), and (2) NFkB-luc reporter (Stratagene, La Jolla, Calif.) in a 10:1 ratio with Fugene 6 transfection reagent (Roche Diagnostics Corp., Indianapolis, Ind.) following the manufacturer's instructions.
(§4) The cells were stimulated with 1 μL of IRM compounds at 1 mM in DMSO (final IRM concentration of 10 μM) or 1 μL DMSO as a control. The plates were then incubated an additional 16 hours at 37° C., 5% CO2. Luminescence was measured on an LMAX luminometer (Molecular Devices Corp., Sunnyvale, Calif.).

HEK293-vector = test: NF-κB-luciferase reporter activation in HEK293-vector control cells, 10 μM IRM (Example 1); assay type: cell-based, human; settings: Homo sapiens, 16 hours, luciferase signal, vector-transfected cells, read-out: Fold Increase Over DMSO Control, HEK293-vector
From the text: as §1, §2, §3, §4

TLR8 [2] = target: T1, TLR8; test: Dose dependent TLR8-mediated NF-κB-luciferase response in HEK293 cells transfected with TLR8 (Example 5); assay type: cell-based; parameters: expressed in transfected cells; host or cells: HEK293 (ATCC CRL-1573), pIRES vector, G-418 selected, co-transfected with NFkB-luc reporter
Protocol: Twenty-four hours before transfection, HEK293 cells were adhered to a 10 cm dish (Corning 430167, Corning Inc., Corning, N.Y.) at 37° C., 8% CO2. The cells were co-transfected with (1) pIRES (BD Biosciences Clontech, Palo Alto, Calif.) either (a) unmodified (HEK293-vector) or (b) containing human TLR8 (HEK293-TLR8), and (2) NFkB-luc reporter (Stratagene, La Jolla, Calif.) in a 10:1 ratio with Fugene 6 transfection reagent (Roche Diagnostics Corp., Indianapolis, Ind.) following the manufacturer's instructions. The plates were incubated for 24 hours following transfection and then selected in G-418 (400 μg/mL) for two weeks. The G-418-resistant cells containing either the TLR8 or empty vector were expanded in HEK293 media supplemented with G-418 for stimulation experiments.
as §4, with “The transfected cells were plated in white opaque 96 well plates (Costar 3917, Corning Inc., Corning, N.Y.) at a concentration of 5×10^4 cells per well in 100 μL of HEK293 media and incubated at 37° C., 8% CO2 for 4 hours. The cells” for “The cells”
HEK293 cells were transfected as described in Example 1. HEK293 cultures were incubated with IRM compound or a negative control compound (1,5-dihydro-1-(2-methylpropyl)-4H-imidazo[4,5-c]quinolin-4-one, U.S. Pat. No. 4,698,348, Example 71) at concentrations of 0.1 μM, 0.3 μM, 1.0 μM, 3.0 μM, 10 μM, or 30 μM, or a vehicle control. Cultures were otherwise incubated as described in Example 1. Luciferase signals were read in RLU (Relative Luciferase Units) as described in Example 1.

Row | SMILES | Fold Increase Over DMSO Control, HEK293-TLR8 (TLR8 [1]; 16 hours, luciferase signal, TLR8-transfected cells) | Fold Increase Over DMSO Control, HEK293-TLR8 / HEK293-vector (TLR8 [1]; ratio of TLR8-transfected to vector-transfected cells) | Fold increase over vehicle (TLR8 [2]; 0.1 μM) | Fold increase over vehicle (TLR8 [2]; 0.3 μM) | Fold increase over vehicle (TLR8 [2]; 1.0 μM) | Fold increase over vehicle (TLR8 [2]; 3.0 μM) | Fold increase over vehicle (TLR8 [2]; 10 μM) | Fold increase over vehicle (TLR8 [2]; 30 μM) | fold induction at 10 µM (HEK293-vector)
1 | CCOCc1nc2c(N)nc3c(c2n1CC(C)(C)O)CCCC3 [IRM 1, 4-amino-2-ethoxymethyl-α,α-dimethyl-6,7,8,9-tetrahydro-1H-imidazo[4,5-c]quinoline-1-ethanol] | 8.64 fold | 10.2 | – | – | – | – | – | – | 0.85
2 | CCOCc1nc2c(N)nc3cc(-c4cccnc4)ccc3c2n1CC(O)CO (stereo not drawn) [IRM57, 3-[4-amino-2-(ethoxymethyl)-7-(pyridin-3-yl)-1H-imidazo[4,5-c]quinolin-1-yl]propane-1,2-diol] | – | – | 1.4 fold | 1.7 fold | 3.1 fold | 7.2 fold | 10.4 fold | 12.5 fold | –
3 | CCOCc1nc2c(N)nc3cc(-c4cccnc4)ccc3c2n1CC(C)(C)O [IRM51, 1-[4-amino-2-(ethoxymethyl)-7-(pyridin-3-yl)-1H-imidazo[4,5-c]quinolin-1-yl]-2-methylpropan-2-ol] | – | – | 1.9 fold | 3.8 fold | 11.9 fold | 15.0 fold | 21.5 fold | 22.4 fold | –
4 | COCCc1nc2c(N)nc3c(c2n1CCOCCNC(=O)Nc1ccccc1)CCCC3 [IRM41, N-(2-{2-[4-amino-2-(methoxyethyl)-6,7,8,9-tetrahydro-1H-imidazo[4,5-c]quinolin-1-yl]ethoxy}ethyl)-n′-phenylurea] | – | – | 0.7 fold | 0.9 fold | 1.0 fold | 3.3 fold | 12.7 fold | 25.4 fold | –
5 | CCOCc1nc2c(N)nc3cc(-c4ccccc4)ccc3c2n1CC1CCNCC1 [IRM48, 2-ethoxymethyl-7-phenyl-1-(piperidin-4-ylmethyl)-1H-imidazo[4,5-c]quinolin-4-amine] | – | – | 0.9 fold | 0.6 fold | 1.1 fold | 1.2 fold | 8.2 fold | 9.5 fold | –
6 | CCOCc1nc2c(N)nc3ccccc3c2n1CC(C)(C)NC(=O)NC(C)C [IRM47, N-{2-[4-amino-2-(ethoxymethyl)-1H-imidazo[4,5-c]quinolin-1-yl]-1,1-dimethylethyl}-n′-isopropylurea] | – | – | 0.9 fold | 0.8 fold | 1.1 fold | 1.7 fold | 4.9 fold | 12.5 fold | –
7 | CCc1nc2c(N)nc3cc(-c4ccncc4)ccc3c2n1CC(C)(C)O [IRM59, 1-[4-amino-2-ethyl-7-(pyridin-4-yl)-1H-imidazo[4,5-c]quinolin-1-yl]-2-methylpropan-2-ol] | – | – | 1.0 fold | 1.3 fold | 2.1 fold | 5.5 fold | 9.5 fold | 9.8 fold | –

Now from value to molecule, other results behind:

Row | Fold Increase Over DMSO Control, HEK293-TLR8 (TLR8 [1]; 16 hours, luciferase signal, TLR8-transfected cells) | Fold Increase Over DMSO Control, HEK293-TLR8 / HEK293-vector (TLR8 [1]; ratio of TLR8-transfected to vector-transfected cells) | Fold increase over vehicle (TLR8 [2]; 0.1 μM) | Fold increase over vehicle (TLR8 [2]; 0.3 μM) | Fold increase over vehicle (TLR8 [2]; 1.0 μM) | Fold increase over vehicle (TLR8 [2]; 3.0 μM) | Fold increase over vehicle (TLR8 [2]; 10 μM) | Fold increase over vehicle (TLR8 [2]; 30 μM) | SMILES | fold induction at 10 µM (HEK293-vector)
8 | – | – | 0.7 fold | 1.1 fold | 1.0 fold | 2.9 fold | 7.2 fold | 9.9 fold | CCCNC(=O)NC(C)(C)Cn1c(COCC)nc2c(N)nc3ccccc3c21 [IRM55, 1-[2-(4-amino-2-ethoxymethyl-1H-imidazo[4,5-c]quinolin-1-yl)-1,1-dimethylethyl]-3-propylurea] | –
9 | – | – | 0.9 fold | 1.1 fold | 1.2 fold | 1.5 fold | 6.8 fold | 18.0 fold | CCCCc1nc2c(N)nc3ccccc3c2n1CCCNC(=O)N1CCOCC1 [IRM39, N-[3-(4-amino-2-butyl-1H-imidazo[4,5-c]quinolin-1-yl)propyl]morpholine-4-carboxamide] | –
10 | – | – | 0.9 fold | 1.1 fold | 1.0 fold | 0.9 fold | 2.5 fold | 12.5 fold | CCc1nc2c(N)nc3ccccc3c2n1CCS(C)(=O)=O [IRM44, 2-ethyl-1-[2-(methylsulfonyl)ethyl]-1H-imidazo[4,5-c]quinolin-4-amine] | –
11 | – | – | 1.5 fold | 2.5 fold | 6.7 fold | 12.1 fold | 17.0 fold | 24.3 fold | CCCCc1nc2c(N)nc3ccccc3c2n1CCS(C)(=O)=O [IRM45, 2-butyl-1-[2-(methylsulfonyl)ethyl]-1H-imidazo[4,5-c]quinolin-4-amine] | –
12 | – | – | 2.3 fold | 2.3 fold | 3.3 fold | 2.1 fold | 5.6 fold | 17.0 fold | CCOCC(=O)NC(C)(C)Cn1c(COCC)nc2c(N)nc3ccccc3c21 [IRM43, N-{2-[4-amino-2-(ethoxymethyl)-1H-imidazo[4,5-c]quinolin-1-yl]-1,1-dimethylethyl}-2-ethoxyacetamide] | –
